Reference: US9579299B2, “CNS pharmaceutical compositions and methods of use” (TARGIA PHARMACEUTICALS, priority 2008, dated 2017)
Values joined by “and” are separate entries in the source; they are usually repeats but may differ in a detail not shown here. Identical values can stand only once. “Also recorded” adds a separate entry of the source.

Tests used:
[1] = CNS active agent; cited from earlier work
four healthy volunteers [2] = test: Example 7: Stanford Sleepiness Scale study with alprazolam; format: in vivo, human; details: for time until subjects were asleep: all four subjects; for 2 Hr SSS / 4 Hr SSS / 6 Hr SSS: individual subjects
Method: The research study was performed on four healthy volunteers, ages 25-41 years old and 60-75 kg. The study was carried out in two sessions with one week in between. During the study volunteers completed a test to measure sleepiness by Stanford Sleepiness Scale (SSS). This SSS test was done before doses of the compositions being evaluated and 2, 4 and 6 hours after such doses (see FIG. 5 for an illustration of the study scheme).
At the first session, volunteers received the treatment (Alprazolam 1.0 mg)+PLAC (placebo)+ and 15 minutes later another PLAC. […] Their SSS score at 2 hour time point was 6 (woozy, fighting sleep). […] The other 2 patients slept through the 2, 4 and 6 hour testing.
At the second study session, volunteers received the treatment (Alprazolam 1.0 mg+60 mg of pseudoephedrine) and 15 minutes later received 400 mg of guaifenesin. […] After 2 and half hours, three out of the four subjects woke up and stayed awake for the rest of the time. Their SSS scores for 4 hour time point test were 2, 3 and 5, for 6 hour time point test SSS scores were 1, 3, 2. The fourth subject woke up for the 6 hour time point test and their SSS score was 3.

[3] = parent drug; cited from earlier work
[4] = test system: one GAD patient, a person; test: Example 11: alprazolam with neuromodulators in one GAD patient; format: in vivo, human
Method: The study was performed on one GAD patient. Fourteen days prior to the first treatment session, the subject was screened with a standard medical/psychiatric history and physical exam. The subject was rated on the Hamilton Anxiety Scale the Stanford Sleepiness Scale (SSS).
During their second visit, immediately prior to administration of alprazolam and placebo, the subject was rated on the Hamilton Anxiety Scale, Quality of Life Questionaire and SSS (pre dose, time 0). Following these tests, the subject received a regular morning alprazolam dose and placebo to mimic pseudoephedrine. Fifteen minutes later, the subject received approximately 120 ml of water and placebo to mimic guaifenesin. The subject was rated on the SSS at 2 hours (anticipated peak plasma concentration) and 4 hours following administration alprazolam. The subject was given enough placebo medication to last for one week (until Visit 3) with the exact instructions to take their medications in the same manner as described above. During this 7-day period, the subject completed an SSS questionaire (Table 16, Placebo). Ratings on the SSS were recorded immediately before (pre) and 3 hours following (post) administration of alprazolam.
During Visit 3, the subject was rated on the Hamilton Anxiety Scale, Quality of Life Questionaire, and SSS 3 hours after initial dose. The subject was then given the active neuromodulators and told to start with them on the next day following ingestion of the regular alprazolam medication. The subject took pseudoephedrine with alprazolam and Mucinex 15 minutes later (neuromodulators were given no more than twice a day and not after 6 PM). Three hours after each dose, the subject recorded their SSS measurements (Table 16, Treatment). […] Throughout this week, the subject recorded SSS scores of 1 (high alertness, no sedatition).

[5] = test system: 8 patients suffering from GAD; test: Example 10: single blind trial of alprazolam with neuromodulators in GAD; format: in vivo, human; details: alprazolam 1 mg with pseudoephedrine 60 mg, guaifenesinER 600 mg 15 minutes later; one week
Method: The study was a single blind trial in which a panel of 8 patients suffering from GAD were administered alprazolam (1 mg), pseudoephedrine (60 mg), and guaifenesinER (600 mg). Subjects underwent an initial screening and then two weeks of testing with the medications of the study (see FIG. 7 for an illustration of the study scheme). Fourteen days prior to the first treatment session, subjects were screened with a standard medical/psychiatric history and physical exam (Screening Visit, Visit 1). Standard laboratory tests were performed at Screening Visit 1 including those of chemistry, hematology and urinalysis, urine test for drugs of abuse, HIV and hepatitis B and C serology tests, 12-lead resting electrocardiogram, and serum pregnancy test for females.
Prior to administration of the placebo treatment, the subjects were rated on the Hamilton Anxiety Scale, Quality of Life Questionnaire, and the Stanford Sleepiness Scale (SSS) (Visit 2, data not shown). Subjects complained of oversedation (SSS score of 4 or greater) from their psychopharmacologic regimen, which included benzodiazepine or alprazolam therapy.
Subjects were given a placebo medication that mimics the two neuromodulators for 7 days and underwent another series of tests at the end of this 7-day period (Visit 3). […]

four healthy volunteers [6] = test: Example 9: Stanford Sleepiness Scale study with lorazepam; format: in vivo, human; details: for 2:00 SSS / 4:00 SSS / 6:00 SSS / time until subject was asleep: individual subjects
Method: The purpose of this study was to determine if the co-administration of pseudoephedrine and guaifenesin with lorazepam is effective in reducing the sedation commonly seen with the administration of lorazepam alone. The research study was performed on four healthy volunteers ages 25-41 years old and 60-75 kg. The study was carried out by two sessions with a one-week interval between the sessions. During the study volunteers completed a set of tests to measure sleepiness by the Stanford Sleepiness Scale (SSS). This test was done before doses of study drug and 2, 4 and 6 hours after doses of study drug (see FIG. 5 for an illustration of the study scheme).
At the first study session volunteers received the treatment (Lorazepam 1.0 mg)+PLAC (placebo)+ and 15 minutes later another PLAC. […] They stayed awake at the 4- and 6-hour time points. Their SSS scores were 2. Two subjects were asleep in one hour. One of them slept 3.5 hours, their SSS at the 6-hour time point was 2. The second subject slept 2.5 hours, and their SSS scores for both the 4- and 6-hour time points were 2. […] They remained awake at the 4- and 6-hour time points. Their SSS scores were 2.
At the second study session volunteers received the treatment (Lorazepam 1.0 mg+60 mg of pseudoephedrine) and 15 minutes later received 400 mg of guaifenesin. During this session all four subjects remained awake most of the time. […] They missed the 2-hour time point measurement, and their SSS scores for the 4- and 6-hour time points were 2 and 3, respectively. […] Their SSS score for 2-hour time point was 2. This subject was asleep again within 3 and a half hours and slept for one hour. They missed the 4-hour time point, but was awake for measurements at the 6-hour time point (SSS was 2). […] They stayed awake the rest of the time, and their SSS scores for the 2-, 4-, and 6-hour time points were 3,2,3 respectively.

subject = test: Example 5: Lorazepam with pseudoephedrine and Mucinex, subject report; format: in vivo, human; details: Lorazepam 1 mg and pseudoephedrine 60 mg; 15 minutes later Mucinex 600 mg
Method: The subject reported that they took Lorazepam 1 mg and pseudoephedrine 60 mg at 12 noon and 15 minutes later ingested and Mucinex 600 mg.

[7] = test system: Volunteer A, a healthy person; test: Example 6: Volunteer A, Lorazepam with and without neuromodulators; format: in vivo, human
Method: Volunteer A, a healthy person ([…], 95 Kg), was prescribed 1 mg Lorazepam (BDR) by their family doctor for anxiety and anxiety related insomnia. Volunteer A took Lorazepam in conjunction with the neuromodulators to reduce Lorazepam's associated sedative side-effects. Volunteer A, who felt their anxiety peak particularly on weekends, agreed to take Lorazepam during the day together with the neuromodulators. […] When taking Lorazepam simultaneously with Pseudoephedrine, Guaifenesin and, Volunteer A was sedated and less anxious.

[8] = First Visit Day on Placebo: Alprazolam 1.0 mg + placebo
[9] = First Visit Day on Placebo: Alprazolam 1.0 mg + placebo, listed as alprazolam
[10] = Second Visit Day on Active Neuromodulation: Alprazolam 1.0 mg + 60 mg pseudoephedrine, 400 mg guaifenesin 15 minutes later
[11] = Second Visit Day on Active Neuromodulation: Alprazolam 1.0 mg + 60 mg pseudoephedrine, 400 mg guaifenesin 15 minutes later, listed as alprazolam
[12] = First Visit Day on Placebo: Lorazepam 1.0 mg + placebo
[13] = First Visit Day on Placebo: Lorazepam 1.0 mg + placebo, listed as lorazepam
[14] = Lorazepam 1.0 mg + pseudoephedrine, guaifenesin 15 minutes later
[15] = Second Visit Day on Active Neuromodulation: Lorazepam 1.0 mg + 60 mg pseudoephedrine, 400 mg guaifenesin 15 minutes later
[16] = Second Visit Day on Active Neuromodulation: Lorazepam 1.0 mg + 60 mg pseudoephedrine, 400 mg guaifenesin 15 minutes later, listed as lorazepam
[17] = 1 mg Lorazepam together with Pseudoephedrine followed by Guaifenesin after 15 minutes
[18] = Lorazepam followed 15 minutes later by Guaifenesin
[19] = Lorazepam simultaneously with Pseudoephedrine, Guaifenesin
[20] = Lorazepam together with pseudoephedrine

## Cc1nnc2n1-c1ccc(Cl)cc1C(c1ccccc1)=NC2 [Alprazolam]
[1]
  Tmax: 1 to 2 h
  bioactivity: 55%
Four healthy volunteers [2]; Alprazolam 1.0 mg + placebo
  time until subjects were asleep: within an hour and a half
Four healthy volunteers [2]; Alprazolam 1.0 mg + pseudoephedrine, guaifenesin 15 minutes later
  time until subjects were asleep: within an hour and a half
Four healthy volunteers [2]; [8]
  2 Hr SSS: 6
  4 Hr SSS: 6
Four healthy volunteers [2]; [9]
  2 Hr SSS: X - asleep (3×) and 6
  4 Hr SSS: X - asleep (3×) and 6
  6 Hr SSS: X - asleep (3×) and 3
Four healthy volunteers [2]; [10]
  2 Hr SSS: X - asleep
  4 Hr SSS: 2 and 3 and 5
  6 Hr SSS: 1 and 3 and 2
Four healthy volunteers [2]; [11]
  4 Hr SSS: 2 and X - asleep and 5 and 3
  6 Hr SSS: 1 and 3 (2×) and 2
Four healthy volunteers [2]; second session, Alprazolam administrated with neuromodulators, all four patients
  total sleep time: 1.5 to 2.5 h
[3]
  Elimination Half-Life: 6 to 12 h
[4]; 7-day period on alprazolam + placebo
  alertness and sedation by SSS, in words: significantly reduced alertness and increased sedation
[4]; Placebo (alprazolam + placebo), post: 3 hours following alprazolam, Days 1-7
  SSS Score: X - asleep
[4]; Placebo column, 3 h post dose (before Day 1)
  SSS Score: X - asleep
[4]; Placebo column, Screen
  SSS Score: 6
[4]; Treatment (alprazolam + pseudoephedrine, Mucinex 15 minutes later), post: three hours after dose, Days 8-15
  SSS Score: 1
[4]; Treatment (alprazolam + pseudoephedrine, Mucinex 15 minutes later), pre, Days 10-15
  SSS Score: 1
[4]; alprazolam + active neuromodulators
  efficacy by Hamilton Anxiety Scale: did not show any reduction in the efficacy
[4]; week on alprazolam + active neuromodulators
  SSS data relative to placebo treatment, in words: dramatic improvement relative to the placebo treatment
[5]
  sedation-related effects as measured by the SSS: significantly reduced

## O=C1Nc2ccc(Cl)cc2C(c2ccccc2Cl)=NC1O (centres unmarked) [Lorazepam]
Four healthy volunteers [6]; [12]
  2:00 SSS: X - Asleep
  4:00 SSS: 2
  6:00 SSS: 2
Four healthy volunteers [6]; [13]
  4:00 SSS: 2 (2×) and 3 and X - Asleep
  6:00 SSS: 2 (3×) and X - Asleep
Four healthy volunteers [6]; Lorazepam 1.0 mg + placebo
  sleep duration of individual subjects: three hours and 3.5 hours and 2.5 hours and 1 hour 15 minutes
  time until subject was asleep: within a half hour; also recorded: in one and a half hours
Four healthy volunteers [6]; [14]
  sleep duration of individual subjects: stayed awake throughout the study and half an hour and 15 minutes and one hour
  time until subject was asleep: within an hour and a half
Four healthy volunteers [6]; [15]
  2:00 SSS: 3 and 2
  4:00 SSS: 3 and 2
  6:00 SSS: 3 and 2
Four healthy volunteers [6]; [16]
  2:00 SSS: 3 (2×) and X - Asleep and 2
  4:00 SSS: 3 and 2 (2×) and X - Asleep
  6:00 SSS: 3 (3×) and 2
Four healthy volunteers [6]; second session, Lorazepam administrated with neuromodulators, two subjects
  total sleep time: 30 min
[1]
  Tmax: 2 h
  bioactivity: 90%
subject
  subject-reported effects: a little “loopy”
[3]
  Elimination Half-Life: 10 to 20 h
[7]; [17]
  anxiety reported: feeling at ease and anxiety free
  sedation reported: did not feel sedated
[7]; Lorazepam alone
  anxiety reported: their anxiety was ameliorated
  sedation reported: severely sedated
  sleep in an afternoon: over 3 hours
[7]; [18]
  anxiety reported: hostile and anxious
  sedation reported: somewhat sedated
[7]; [19]
  anxiety reported: less anxious
  sedation reported: sedated
[7]; [20]
  anxiety reported: upon waking felt much less anxious than without treatment
  sedation reported: as sedated as with Lorazepam alone
